Read-outs that look alike come from different tables or passages of the source.
Columns and labels:
[1] = system: C. neoformans clinical isolates; assay: MIC/MFC of test compounds, microdilution; type: cell-based, Cryptococcus neoformans; conditions: for MIC: read-out: MIC
Description: (§1) Six clinical isolates belonging to the Cryptococcus genus were obtained from patients who attended the Instituto Nacional de Infectologia Evandro Chagas (INI), Fundação Oswaldo Cruz (FIOCRUZ), and were kindly provided by Dr. Rodrigo Almeida-Paes (INI-FIOCRUZ). To comply with ethical standards and institutional agreements between UFRJ and FIOCRUZ, patient data were not disclosed. In this sense, the C. neoformans isolates were designated CFP00213 (213), CFP00223 (223), and CFP00350 (350), while the C. gattii isolates were labeled CFP00023 (23), CFP00025 (25), and CFP00027 (27). Before each experiment, an aliquot of the culture was transferred from Sabouraud dextrose agar (2% glucose, 1% peptone, and 0.5% yeast extract) to RPMI 1640 medium (Sigma-Aldrich, St. Louis, MO, USA), pH 7.2, buffered with 0.165 M MOPS (Sigma-Aldrich, St. Louis, MO, USA). RPMI medium induces the expression of capsular polysaccharides, the primary virulence factor of Cryptococcus cells. The cultures were incubated at 37 °C for 48 h to promote cell proliferation, stimulate metabolic activation, and enhance capsular development. Yeast cell counts were determined using a Neubauer chamber.
(§2) Following MIC determination, the MFC was assessed by inoculating 10 µL from wells showing no visible fungal growth onto Sabouraud dextrose agar. […] To further support and strengthen the evidence of the anti-Cryptococcus activity of the Cu-phendione and Ag-phendione complexes, we additionally performed MIC/MFC assays using well-characterized standard reference strains: ATCC 28957, H99, T1444 (all C. neoformans), and R265 (C. gattii).

[2] = system: C. gattii clinical isolates; assay: MIC/MFC of test compounds, microdilution; type: cell-based, Cryptococcus gattii; conditions: for MIC: read-out: MIC
Description: as §1, §2

[3] = system: C. neoformans reference strains (ATCC 28957, H99, T1444); assay: MIC of complexes against reference strains; type: cell-based, Cryptococcus neoformans
Description: (§3) To further support and strengthen the evidence of the anti-Cryptococcus activity of the Cu-phendione and Ag-phendione complexes, we additionally performed MIC/MFC assays using well-characterized standard reference strains: ATCC 28957, […], […] (all C. neoformans), and […]).

[4] = system: C. gattii reference strain R265; assay: MIC of complexes against reference strain; type: cell-based, Cryptococcus gattii
Description: as §3

[5] = system: C. neoformans or C. gattii; assay: Stability of antifungal activity (MIC repeated every six months over two years); type: cell-based, Cryptococcus neoformans and Cryptococcus gattii; conditions: same DMSO solution, room temperature, protected from light, MIC every six months for 730 days
Description: To evaluate the stability of the antifungal activity of the test complexes, the MIC assay was repeated every six months over a two-year period using the same Ag-phendione or Cu-phendione solution. The solutions were stored at room temperature and protected from light to maintain their chemical integrity.

[6] = system: Galleria mellonella larvae; assay: In vivo acute toxicity, single treatment; conditions: single inoculation; for Larval survival: 125–1000 µM, 10 µL/larva, 37 °C
Procedure: (§4) In this set of experiments, G. mellonella larvae weighing approximately 0.2–0.3 g and displaying clear, uniform coloration were used. The larvae were inoculated (10 µL/larva) using an insulin syringe (BD Ultra-Fine, Franklin Lakes, NJ, USA) at the last left proleg. […] We also assessed their coloration through visual analysis as an indicator of stress levels. Throughout the experiments, the larvae were maintained at 37 °C [19, 42]. Two distinct treatment protocols were designed to evaluate the effects of the test compounds on larval survivability, as detailed below.
For the acute toxicity analysis, the test compounds were administered to the larvae in a single inoculation at concentrations ranging from 1000 to 125 μM. Each group consisted of 10 larvae, while the control group received only sterile PBS with 4% DMSO. […] The SI was calculated using the following equation: SI = G. mellonella CC50/Cryptococcus MIC.

[7] = system: Galleria mellonella larvae; assay: In vivo chronic toxicity, multiple treatment; conditions: for Alterations in stress indicators (melanization, cocoon formation) / Chronic toxicity (larval survival monitored over seven days): 62.5 µM daily for five consecutive days; for Larval survival: daily inoculation 62.5 µM for up to five days
Procedure: as §4
For the chronic toxicity analysis, larvae were inoculated daily for five consecutive days with the test complexes (Cu-phendione or Ag-phendione) at a high concentration of 62.5 μM. Each group consisted of 10 larvae, while the control group received only sterile PBS with 4% DMSO.

[8] = system: hemocytes of G. mellonella larvae; type: in vivo, Galleria mellonella; conditions: 24 h
Procedure: The hemocyte density in the hemolymph of larvae inoculated with both complexes was assessed to evaluate potential immunological changes in G. mellonella. […] To analyze hemocyte density, a ventral caudal incision was made between the last prolegs of each larva using a surgical scalpel, and 10 μL of hemolymph was collected. The hemolymph was then diluted 1:100 in 990 μL of an anticoagulant buffer solution (98 mM NaOH, 186 mM NaCl, 17 mM EDTA, and 41 mM citric acid, pH 4.5). The number of hemocytes in each dilution was subsequently counted using a Neubauer chamber (Thermo Fisher Scientific, Waltham, MA USA).

mice = system: mice; set-up: method as in doi:10.1039/c2tx00010e; conditions: cited from earlier work; for Deaths, behavioral, dietary or body weight changes: 45 mg/kg daily for five days plus seven days observation; for AST and ALT activities vs control: 45 mg/kg daily for five days
hamsters = system: hamsters; set-up: method as in doi:10.1016/j.ejmcr.2022.100093; conditions: 1 mg/kg five times per week for nine weeks; cited from earlier work
Sheep erythrocytes = system: Sheep erythrocytes
Procedure: To evaluate the hemolytic activity of the test compounds, the microdilution method was performed in PBS using 96-well cell culture plates, as described by Evans et al.. PBS containing the test compounds (phendione, Cu-phendione, and Ag-phendione) at varying concentrations (1.9–62.5 µM) was added to the wells. Sheep erythrocytes (Cultilab, Rio de Janeiro, RJ, Brazil) were diluted in PBS to a final concentration of 2% (approximately 2 × 10^8 erythrocytes) and added to each well. The final volume of each well was 200 μL. A negative control (PBS and blood) and a positive control (PBS, blood, and 1% Triton X-100) were also included. The plates were incubated at 37 °C for 24 h, then centrifuged at 500× g for 10 min at 4 °C. Following centrifugation, 100 μL of the supernatant from each well was transferred to a new 96-well microplate, and absorbance was measured using a microplate reader ([…] SkyHigh; Thermo Scientific, Waltham, MA, USA) at 415 nm. […] The average absorbance of the positive control was set as 100% hemolysis, and the percentage hemolysis of the other groups was calculated accordingly. The selectivity index (SI) was determined using the following equation: SI = erythrocyte CC50/Cryptococcus MIC.

[9] = all C. neoformans clinical isolates
[10] = all C. gattii clinical isolates

Structure (SMILES)	MFC ([1]; C. neoformans isolate 213) [µM]	MIC ([1]; C. neoformans isolate 213) [µM]	MFC ([1]; C. neoformans isolate 223) [µM]	MIC ([1]; C. neoformans isolate 223) [µM]	MFC ([1]; C. neoformans isolate 350) [µM]	MIC ([1]; C. neoformans isolate 350) [µM]	MFC [1, 9] [µM]	MIC [1, 9] [µM]	MFC ([2]; C. gattii isolate 23) [µM]	MIC ([2]; C. gattii isolate 23) [µM]	MFC ([2]; C. gattii isolate 25) [µM]	MIC ([2]; C. gattii isolate 25) [µM]	MFC ([2]; C. gattii isolate 27) [µM]	MIC ([2]; C. gattii isolate 27) [µM]	MFC [2, 10] [µM]	MIC [2, 10] [µM]	MIC ([3]; C. neoformans ATCC 28957) [µM]	MIC ([3]; C. neoformans H99) [µM]	MIC ([3]; C. neoformans T1444) [µM]	MIC [4] [µM]	further results
O=C1C(=O)c2cccnc2-c2ncccc21.O=C1C(=O)c2cccnc2-c2ncccc21.[Ag+].[O-][Cl+3]([O-])([O-])[O-] [Ag-phendione, [Ag(phendione)2]ClO4]	25	1.56	25	1.56	25	1.56	25	1.56	12.5	1.56	12.5	1.56	12.5	1.56	12.5	1.56	0.19	0.78	0.78	0.19	Stability of antifungal activity (MIC variation) [5]: No variation in MIC values; Changes in melanization or silk/cocoon production [6]: no visible changes in melanization or silk/cocoon production; Larval survival [6]: 100%; Alterations in stress indicators (melanization, cocoon formation) [7]: no alterations; Chronic toxicity (larval survival monitored over seven days) [7]: non-toxic; Larval survival [7]: 100%; Hemocyte density vs PBS control ([8]; single inoculation, any concentration tested (15.6–1000 µM)): did not significantly affect hemocyte density; Deaths, behavioral, dietary or body weight changes (mice): no deaths or behavioral, dietary, or body weight changes; AST and ALT activities vs control (mice): No significant differences; Acute toxicity: highest dose with 100% tolerance (mice): 150 mg/kg; Deaths, changes in behavior, diet or body weight (hamsters): no deaths or changes in behavior, diet, or body weight; Urea, creatinine, AST, ALT and alkaline phosphatase levels vs control (hamsters): no differences
O.O.O.O.O=C1C(=O)c2cccnc2-c2ncccc21.O=C1C(=O)c2cccnc2-c2ncccc21.O=C1C(=O)c2cccnc2-c2ncccc21.[Cu+2].[O-][Cl+3]([O-])([O-])[O-].[O-][Cl+3]([O-])([O-])[O-] [Cu-phendione, [Cu(phendione)3](ClO4)2·4H2O]	50	3.125	50	3.125	50	3.125	50	3.125	12.5	6.25	12.5	6.25	12.5	6.25	12.5	6.25	1.56	0.78	0.78	0.19	Stability of antifungal activity (MIC variation) [5]: No variation in MIC values; CC50 (Sheep erythrocytes): > 62.5 µM; CC50 ([6]; assumed, read-out: CC50 (G. mellonella larvae)): > 1000 µM; Changes in melanization or silk/cocoon production [6]: no visible changes in melanization or silk/cocoon production; Larval survival [6]: 100%; Alterations in stress indicators (melanization, cocoon formation) [7]: no alterations; Chronic toxicity (larval survival monitored over seven days) [7]: non-toxic; Larval survival [7]: 100%; Hemocyte density vs PBS control ([8]; single inoculation 15.625 µM): significant increase in hemocyte density; Hemocyte density vs PBS control ([8]; single inoculation 31.25 µM): significant increase in hemocyte density; Hemocyte density vs PBS control ([8]; single inoculation, other tested concentrations): No notable changes in hemocyte levels; Deaths, behavioral, dietary or body weight changes (mice): no deaths or behavioral, dietary, or body weight changes; AST and ALT activities vs control (mice): No significant differences; Acute toxicity: highest dose with 100% tolerance (mice): 45 mg/kg; Deaths, changes in behavior, diet or body weight (hamsters): no deaths or changes in behavior, diet, or body weight; Urea, creatinine, AST, ALT and alkaline phosphatase levels vs control (hamsters): no differences

Reference: PMC12193833, “Toxicity Assessment and Antifungal Potential of Copper(II) and Silver(I) Complexes with 1,10-Phenanthroline-5,6-dione Against Drug-Resistant Clinical Isolates of Cryptococcus gattii and Cryptococcus neoformans” (Journal of Fungi, 2025)
